The values that follow come from ChEMBL document CHEMBL3991601, “The target landscape of clinical kinase drugs” (Science, 2017).

Assay [1] has as its target Cyclin-dependent kinase 12 (Homo sapiens, UniProt Q9NYV4).
The target in another assay is T1, Ephrin type-B receptor 3 (Homo sapiens, UniProt P54753).
T1 sequence (P54753 whole entry): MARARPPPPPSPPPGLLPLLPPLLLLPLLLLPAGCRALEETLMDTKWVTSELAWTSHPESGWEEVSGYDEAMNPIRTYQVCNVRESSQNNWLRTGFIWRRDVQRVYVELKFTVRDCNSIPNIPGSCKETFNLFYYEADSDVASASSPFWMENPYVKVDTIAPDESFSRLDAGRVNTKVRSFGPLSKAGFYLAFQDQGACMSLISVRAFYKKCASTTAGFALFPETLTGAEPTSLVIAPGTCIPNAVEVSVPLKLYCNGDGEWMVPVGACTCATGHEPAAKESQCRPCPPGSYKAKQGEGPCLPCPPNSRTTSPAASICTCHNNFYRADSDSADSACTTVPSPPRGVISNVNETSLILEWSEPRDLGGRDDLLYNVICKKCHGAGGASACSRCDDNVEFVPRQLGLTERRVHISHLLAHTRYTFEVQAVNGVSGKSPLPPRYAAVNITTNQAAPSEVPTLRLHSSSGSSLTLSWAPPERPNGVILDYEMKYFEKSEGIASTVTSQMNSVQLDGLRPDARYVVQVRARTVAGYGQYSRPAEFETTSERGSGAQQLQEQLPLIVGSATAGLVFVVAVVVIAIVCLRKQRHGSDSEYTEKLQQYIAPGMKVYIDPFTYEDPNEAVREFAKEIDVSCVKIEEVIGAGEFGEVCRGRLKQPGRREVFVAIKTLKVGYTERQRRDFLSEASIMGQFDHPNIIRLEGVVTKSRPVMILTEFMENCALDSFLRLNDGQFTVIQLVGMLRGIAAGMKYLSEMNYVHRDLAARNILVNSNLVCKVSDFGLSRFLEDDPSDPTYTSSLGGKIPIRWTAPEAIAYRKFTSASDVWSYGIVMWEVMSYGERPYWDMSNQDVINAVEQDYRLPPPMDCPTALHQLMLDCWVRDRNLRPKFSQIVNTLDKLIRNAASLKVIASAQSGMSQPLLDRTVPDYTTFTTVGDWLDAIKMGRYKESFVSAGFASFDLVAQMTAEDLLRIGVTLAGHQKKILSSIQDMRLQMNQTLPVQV

Assay [2] concerns the target T2, AarF domain-containing protein kinase 1 (Homo sapiens, UniProt Q86TW2).
T2 sequence (Q86TW2 whole entry): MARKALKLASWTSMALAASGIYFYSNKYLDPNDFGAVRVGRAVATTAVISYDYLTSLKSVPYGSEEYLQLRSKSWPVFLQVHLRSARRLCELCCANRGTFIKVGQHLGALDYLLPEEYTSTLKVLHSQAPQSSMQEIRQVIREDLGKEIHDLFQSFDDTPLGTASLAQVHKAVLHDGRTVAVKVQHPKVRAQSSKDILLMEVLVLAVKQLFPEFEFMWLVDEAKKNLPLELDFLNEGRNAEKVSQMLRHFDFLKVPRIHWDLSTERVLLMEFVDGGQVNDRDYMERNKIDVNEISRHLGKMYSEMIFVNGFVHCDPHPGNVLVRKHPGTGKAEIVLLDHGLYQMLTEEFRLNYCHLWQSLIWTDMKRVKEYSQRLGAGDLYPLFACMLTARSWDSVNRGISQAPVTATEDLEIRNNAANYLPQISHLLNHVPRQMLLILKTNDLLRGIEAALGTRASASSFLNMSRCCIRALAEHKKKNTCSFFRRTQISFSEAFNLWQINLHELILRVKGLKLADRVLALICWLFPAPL

Another assay has as its target T3, Activin receptor type-1B (Homo sapiens, UniProt P36896).
T3 sequence (P36896 whole entry): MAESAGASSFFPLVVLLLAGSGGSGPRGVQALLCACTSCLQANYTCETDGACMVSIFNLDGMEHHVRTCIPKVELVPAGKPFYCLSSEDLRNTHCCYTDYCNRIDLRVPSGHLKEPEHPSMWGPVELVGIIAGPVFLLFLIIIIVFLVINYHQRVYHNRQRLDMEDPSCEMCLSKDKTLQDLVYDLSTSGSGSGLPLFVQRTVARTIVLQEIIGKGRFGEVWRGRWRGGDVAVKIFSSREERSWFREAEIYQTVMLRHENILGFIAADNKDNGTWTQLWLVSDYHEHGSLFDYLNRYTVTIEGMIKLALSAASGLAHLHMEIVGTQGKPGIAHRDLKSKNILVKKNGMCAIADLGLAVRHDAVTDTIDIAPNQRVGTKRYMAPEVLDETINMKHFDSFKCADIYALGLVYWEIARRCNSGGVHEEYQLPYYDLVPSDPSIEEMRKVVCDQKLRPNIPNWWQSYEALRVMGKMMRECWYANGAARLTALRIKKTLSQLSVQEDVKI

In assay [3] the target is Guanine nucleotide-binding protein G(i) subunit alpha-2 (Homo sapiens, UniProt P04899).
Assay [4] deals with T4, Uncharacterized protein FLJ45252 (Homo sapiens, UniProt Q6ZSR9).
T4 sequence (Q6ZSR9 whole entry): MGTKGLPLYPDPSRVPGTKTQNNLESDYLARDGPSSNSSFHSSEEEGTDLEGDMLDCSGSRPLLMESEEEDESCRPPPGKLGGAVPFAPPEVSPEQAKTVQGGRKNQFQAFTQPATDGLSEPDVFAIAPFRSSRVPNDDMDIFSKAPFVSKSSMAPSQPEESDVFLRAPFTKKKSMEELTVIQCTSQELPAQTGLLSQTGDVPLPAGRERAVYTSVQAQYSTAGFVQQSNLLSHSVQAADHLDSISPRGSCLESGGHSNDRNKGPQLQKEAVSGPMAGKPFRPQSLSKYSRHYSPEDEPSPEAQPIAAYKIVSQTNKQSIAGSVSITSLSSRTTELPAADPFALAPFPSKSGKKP
Conditions: read-out: Kd apparent; k-562, colo 205, sk-n-be(2) and mv-4-11.

The target in assay [5] is Dual specificity tyrosine-phosphorylation-regulated kinase 1A (Homo sapiens, UniProt Q13627).
For assay [6], the target named is Bone morphogenetic protein receptor type-1A (Homo sapiens, UniProt P36894).
The target of assay [7] is Mitogen-activated protein kinase 8 (Homo sapiens, UniProt P45983).
In assay [8] the target is Mitotic checkpoint serine/threonine-protein kinase BUB1 (Homo sapiens, UniProt O43683).
Assay [9] concerns the target Ribosomal protein S6 kinase alpha-5 (Homo sapiens, UniProt O75582).
The target in assay [10] is MAP kinase-activated protein kinase 2 (Homo sapiens, UniProt P49137).
For another assay, the target named is Deoxycytidine kinase (Homo sapiens, UniProt P27707).

Each structure is given as a SMILES string. Counter-ions that a name gives are not always drawn. Calls of active or inactive are those of the source. Cut-off read from the data, not from the text of the source, for most assays here: actives have a measured Kd and inactives only a lower limit. Bounds are passed on as bounds.
Note: in the data inactive means no Kd found up to 30 µM.

Chain of Cyclin-dependent kinase 12 (Q9NYV4 whole entry): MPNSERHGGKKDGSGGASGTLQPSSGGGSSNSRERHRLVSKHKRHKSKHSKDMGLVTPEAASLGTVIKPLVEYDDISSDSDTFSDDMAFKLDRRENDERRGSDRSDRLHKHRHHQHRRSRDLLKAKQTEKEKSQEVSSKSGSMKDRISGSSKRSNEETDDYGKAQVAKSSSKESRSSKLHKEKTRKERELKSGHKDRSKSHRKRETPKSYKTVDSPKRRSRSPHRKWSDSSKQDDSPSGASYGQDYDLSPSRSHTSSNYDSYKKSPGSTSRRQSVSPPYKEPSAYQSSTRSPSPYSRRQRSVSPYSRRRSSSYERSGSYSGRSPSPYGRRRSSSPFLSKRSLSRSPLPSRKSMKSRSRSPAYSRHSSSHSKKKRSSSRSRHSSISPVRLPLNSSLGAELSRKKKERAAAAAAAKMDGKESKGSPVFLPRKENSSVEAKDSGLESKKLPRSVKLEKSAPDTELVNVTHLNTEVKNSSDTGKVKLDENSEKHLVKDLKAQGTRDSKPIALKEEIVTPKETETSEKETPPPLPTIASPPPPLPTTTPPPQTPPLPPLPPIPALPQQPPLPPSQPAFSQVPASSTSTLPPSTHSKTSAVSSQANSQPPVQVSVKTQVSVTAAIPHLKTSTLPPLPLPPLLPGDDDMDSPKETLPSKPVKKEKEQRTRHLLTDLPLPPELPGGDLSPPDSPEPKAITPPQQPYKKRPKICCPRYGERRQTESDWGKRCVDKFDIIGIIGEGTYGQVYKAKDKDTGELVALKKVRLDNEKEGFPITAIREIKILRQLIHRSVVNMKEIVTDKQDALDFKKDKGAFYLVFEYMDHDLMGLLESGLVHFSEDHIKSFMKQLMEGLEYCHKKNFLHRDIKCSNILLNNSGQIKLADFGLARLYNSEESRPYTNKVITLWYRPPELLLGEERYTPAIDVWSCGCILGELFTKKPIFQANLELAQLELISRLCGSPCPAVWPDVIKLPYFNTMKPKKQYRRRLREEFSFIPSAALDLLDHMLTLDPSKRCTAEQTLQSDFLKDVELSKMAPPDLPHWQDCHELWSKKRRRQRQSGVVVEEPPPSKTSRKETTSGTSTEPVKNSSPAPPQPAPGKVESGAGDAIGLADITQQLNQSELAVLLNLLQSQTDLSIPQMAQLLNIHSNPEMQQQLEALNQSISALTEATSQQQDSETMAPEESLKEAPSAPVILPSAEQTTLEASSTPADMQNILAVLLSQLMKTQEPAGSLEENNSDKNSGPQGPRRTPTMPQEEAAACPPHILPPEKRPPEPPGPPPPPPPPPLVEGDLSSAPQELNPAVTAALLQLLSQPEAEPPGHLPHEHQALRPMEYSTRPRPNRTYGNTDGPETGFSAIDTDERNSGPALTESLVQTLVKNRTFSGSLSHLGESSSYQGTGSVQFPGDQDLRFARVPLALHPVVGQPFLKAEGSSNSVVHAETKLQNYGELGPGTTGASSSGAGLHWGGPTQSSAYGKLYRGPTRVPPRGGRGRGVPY
Chain of Mitogen-activated protein kinase 8 (P45983 whole entry): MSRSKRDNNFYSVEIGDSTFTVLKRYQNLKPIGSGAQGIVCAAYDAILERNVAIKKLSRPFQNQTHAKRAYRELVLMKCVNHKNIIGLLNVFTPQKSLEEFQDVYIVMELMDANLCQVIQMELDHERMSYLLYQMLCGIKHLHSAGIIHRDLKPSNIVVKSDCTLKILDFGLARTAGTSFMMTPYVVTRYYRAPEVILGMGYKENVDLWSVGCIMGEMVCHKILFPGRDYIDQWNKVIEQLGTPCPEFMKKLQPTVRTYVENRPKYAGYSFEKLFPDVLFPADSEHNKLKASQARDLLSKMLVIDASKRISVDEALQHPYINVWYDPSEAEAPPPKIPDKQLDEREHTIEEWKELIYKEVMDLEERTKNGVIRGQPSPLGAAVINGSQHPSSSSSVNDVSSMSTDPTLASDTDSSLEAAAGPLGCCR
Chain of Deoxycytidine kinase (P27707 whole entry): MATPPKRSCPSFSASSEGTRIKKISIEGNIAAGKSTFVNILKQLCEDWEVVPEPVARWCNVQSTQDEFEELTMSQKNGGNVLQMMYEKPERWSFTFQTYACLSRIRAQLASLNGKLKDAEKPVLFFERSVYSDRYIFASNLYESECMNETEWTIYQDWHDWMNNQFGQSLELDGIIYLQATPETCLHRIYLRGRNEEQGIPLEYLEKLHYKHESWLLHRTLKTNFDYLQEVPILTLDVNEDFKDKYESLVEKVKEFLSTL
Chain of Ribosomal protein S6 kinase alpha-5 (O75582 whole entry): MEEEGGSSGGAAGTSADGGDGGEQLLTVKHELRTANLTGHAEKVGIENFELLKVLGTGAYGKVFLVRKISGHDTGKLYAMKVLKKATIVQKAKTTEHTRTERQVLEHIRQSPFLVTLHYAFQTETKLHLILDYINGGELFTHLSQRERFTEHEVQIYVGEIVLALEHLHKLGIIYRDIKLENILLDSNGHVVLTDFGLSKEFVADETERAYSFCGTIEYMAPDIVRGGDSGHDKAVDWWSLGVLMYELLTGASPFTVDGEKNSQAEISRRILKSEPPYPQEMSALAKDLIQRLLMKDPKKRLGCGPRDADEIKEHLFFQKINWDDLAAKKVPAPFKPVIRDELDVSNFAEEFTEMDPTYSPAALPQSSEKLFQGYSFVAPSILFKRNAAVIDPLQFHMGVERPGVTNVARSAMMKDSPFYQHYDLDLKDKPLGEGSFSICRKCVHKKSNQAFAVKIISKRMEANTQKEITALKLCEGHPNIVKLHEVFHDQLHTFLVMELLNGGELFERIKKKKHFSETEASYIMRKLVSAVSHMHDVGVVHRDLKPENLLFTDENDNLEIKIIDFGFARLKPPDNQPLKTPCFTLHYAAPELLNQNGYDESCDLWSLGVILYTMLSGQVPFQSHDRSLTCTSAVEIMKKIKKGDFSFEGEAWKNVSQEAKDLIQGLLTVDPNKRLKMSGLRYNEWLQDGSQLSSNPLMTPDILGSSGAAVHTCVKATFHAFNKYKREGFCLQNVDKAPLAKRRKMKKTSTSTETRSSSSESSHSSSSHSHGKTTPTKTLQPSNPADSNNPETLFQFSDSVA
Chain of MAP kinase-activated protein kinase 2 (P49137 whole entry): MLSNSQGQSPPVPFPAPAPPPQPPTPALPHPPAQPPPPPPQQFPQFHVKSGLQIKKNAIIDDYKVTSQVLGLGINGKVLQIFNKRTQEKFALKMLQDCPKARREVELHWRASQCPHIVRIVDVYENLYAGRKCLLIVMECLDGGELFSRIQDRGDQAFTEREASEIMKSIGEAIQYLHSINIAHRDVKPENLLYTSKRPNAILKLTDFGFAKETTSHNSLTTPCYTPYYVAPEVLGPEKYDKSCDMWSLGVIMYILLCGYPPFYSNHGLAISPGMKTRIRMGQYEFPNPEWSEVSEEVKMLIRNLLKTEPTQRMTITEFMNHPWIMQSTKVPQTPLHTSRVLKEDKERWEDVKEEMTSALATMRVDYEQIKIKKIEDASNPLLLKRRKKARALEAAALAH
Chain of Mitotic checkpoint serine/threonine-protein kinase BUB1 (O43683 whole entry): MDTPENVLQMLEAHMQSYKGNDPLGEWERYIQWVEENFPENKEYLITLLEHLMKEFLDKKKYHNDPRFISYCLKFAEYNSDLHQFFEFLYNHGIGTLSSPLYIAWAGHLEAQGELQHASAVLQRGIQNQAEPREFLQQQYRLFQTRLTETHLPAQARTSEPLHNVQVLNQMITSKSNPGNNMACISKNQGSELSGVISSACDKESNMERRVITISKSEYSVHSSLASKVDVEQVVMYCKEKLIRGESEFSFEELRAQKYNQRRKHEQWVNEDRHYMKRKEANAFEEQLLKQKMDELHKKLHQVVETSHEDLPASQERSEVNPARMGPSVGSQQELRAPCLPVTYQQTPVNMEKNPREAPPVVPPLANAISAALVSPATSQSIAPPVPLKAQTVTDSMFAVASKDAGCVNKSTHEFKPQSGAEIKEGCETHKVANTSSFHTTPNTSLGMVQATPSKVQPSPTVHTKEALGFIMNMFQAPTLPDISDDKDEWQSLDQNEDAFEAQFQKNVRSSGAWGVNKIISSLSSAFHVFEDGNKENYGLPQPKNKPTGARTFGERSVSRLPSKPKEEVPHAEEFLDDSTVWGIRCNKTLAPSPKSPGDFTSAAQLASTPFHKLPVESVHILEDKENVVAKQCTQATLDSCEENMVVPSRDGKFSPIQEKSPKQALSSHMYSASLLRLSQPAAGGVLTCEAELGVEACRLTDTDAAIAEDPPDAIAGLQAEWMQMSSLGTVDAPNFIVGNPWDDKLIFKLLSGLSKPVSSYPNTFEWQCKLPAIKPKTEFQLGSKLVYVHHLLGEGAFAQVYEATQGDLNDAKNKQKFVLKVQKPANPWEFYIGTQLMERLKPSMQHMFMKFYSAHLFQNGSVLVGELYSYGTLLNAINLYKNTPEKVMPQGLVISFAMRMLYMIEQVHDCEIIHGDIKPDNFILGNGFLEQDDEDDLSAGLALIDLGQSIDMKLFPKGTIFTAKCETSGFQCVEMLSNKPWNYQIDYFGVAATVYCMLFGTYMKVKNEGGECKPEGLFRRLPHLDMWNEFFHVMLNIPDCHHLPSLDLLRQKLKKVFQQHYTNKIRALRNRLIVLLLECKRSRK
Chain of Bone morphogenetic protein receptor type-1A (P36894 whole entry): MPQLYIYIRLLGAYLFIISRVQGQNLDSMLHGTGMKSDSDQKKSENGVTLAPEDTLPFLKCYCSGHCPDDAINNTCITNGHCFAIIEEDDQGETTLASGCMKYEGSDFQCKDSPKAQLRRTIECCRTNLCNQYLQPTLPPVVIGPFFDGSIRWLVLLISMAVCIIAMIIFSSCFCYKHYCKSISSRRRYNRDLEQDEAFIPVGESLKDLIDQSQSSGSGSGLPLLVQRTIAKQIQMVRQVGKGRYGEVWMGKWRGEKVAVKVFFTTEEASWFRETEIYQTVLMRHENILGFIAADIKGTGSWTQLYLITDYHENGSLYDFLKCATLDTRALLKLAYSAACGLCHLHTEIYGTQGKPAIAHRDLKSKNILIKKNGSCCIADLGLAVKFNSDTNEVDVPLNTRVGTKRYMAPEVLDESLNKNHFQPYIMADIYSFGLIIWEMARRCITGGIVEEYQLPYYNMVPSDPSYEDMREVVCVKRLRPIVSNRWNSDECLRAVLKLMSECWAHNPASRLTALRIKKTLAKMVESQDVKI

Take `Cn1cnc2c(F)c(Nc3ccc(Br)cc3F)c(C(=O)NOCCO)cc21` [BINIMETINIB]: the Kd (in assay [1]; on Ephrin type-B receptor 3; in assay [2]; on Activin receptor type-1B; in assay [3]; in assay [4]) was > 30 µM (inactive) each time. The Kd in assay [5], in assay [6], in assay [7], in assay [8], in assay [9] and in assay [10] was > 30 µM (inactive) in each case. Moreover, on Deoxycytidine kinase, the Kd was > 30 µM (inactive).

`COc1cc2ncnc(Oc3cccc(NC(=O)Nc4cc(C(C)(C)C(F)(F)F)on4)c3)c2cc1OC` [CEP-32496]: the Kd (in assay [1]; on Ephrin type-B receptor 3; in [2]; at Activin receptor type-1B; in assay [3]; in assay [4]) was > 30 µM (inactive) each time. The Kd was > 30 µM (inactive) in [5]; > 30 µM (inactive) in assay [6]; 1.47 µM (active) in assay [7]; > 30 µM (inactive) in [8]; > 30 µM (inactive) in assay [9]; 0.49 µM (active) in assay [10]. Moreover, the Kd at Deoxycytidine kinase is > 30 µM (inactive).

Turning to `Cc1cc(Nc2ncc(Cl)c(Nc3ccccc3S(=O)(=O)C(C)C)n2)c(OC(C)C)cc1C1CCNCC1` [CERITINIB], the Kd (in assay [1]; at Ephrin type-B receptor 3; in [2]; at Activin receptor type-1B; in assay [3]; in assay [4]) was > 30 µM (inactive) throughout. The Kd in assay [5], in [6], in assay [7], in assay [8], in [9] and in assay [10] was > 30 µM (inactive) in each case. The Kd on Deoxycytidine kinase is > 30 µM (inactive).

For the compound `COCC(=O)NC/C=C/c1ccc2ncnc(Nc3ccc(Oc4ccc(C)nc4)c(C)c3)c2c1` [CP-724714], the Kd (in assay [1]; at Ephrin type-B receptor 3; in assay [2]; at Activin receptor type-1B; in [3]; in assay [4]) was > 30 µM (inactive) throughout. The Kd in [5], in assay [6], in [7], in assay [8], in assay [9] and in assay [10] was > 30 µM (inactive) throughout. Also, the Kd on Deoxycytidine kinase was > 30 µM (inactive).

With `C#Cc1cccc(Nc2ncnc3cc(OC)c(OCCCCCCC(=O)NO)cc23)c1` [CUDC-101], the Kd (in assay [1]; at Ephrin type-B receptor 3; in assay [2]; on Activin receptor type-1B; in assay [3]; in assay [4]) was > 30 µM (inactive) each time. The Kd was > 30 µM (inactive) in assay [5]; > 30 µM (inactive) in assay [6]; > 30 µM (inactive) in [7]; 0.961 µM (active) in [8]; > 30 µM (inactive) in [9]; > 30 µM (inactive) in [10]. Further, on Deoxycytidine kinase, the Kd was > 30 µM (inactive).

Consider `CCS(=O)(=O)N1CCN(c2ccc(Nc3ncc(C(N)=O)c(NC4CC4)n3)cc2)CC1` [Cerdulatinib Hydrochloride], for which the Kd in assay [1] was > 30 µM (inactive); at Ephrin type-B receptor 3, > 30 µM (inactive); in [2], > 30 µM (inactive); at Activin receptor type-1B, > 30 µM (inactive); in assay [3], > 30 µM (inactive); in assay [4], 0.0007 µM (active). The Kd in [5] was > 30 µM (inactive); in assay [6], > 30 µM (inactive); in assay [7] it was 0.356 µM (active); in assay [8], 0.437 µM (active); in assay [9], > 30 µM (inactive); in [10], > 30 µM (inactive). Moreover, at Deoxycytidine kinase, the Kd is > 30 µM (inactive).

Take `Cc1cccc(-c2nn3c(c2-c2ccnc4ccc(C(N)=O)cc24)CCC3)n1` [GALUNISERTIB]: the Kd was > 30 µM (inactive) in assay [1]; > 30 µM (inactive) on Ephrin type-B receptor 3; > 30 µM (inactive) in [2]; 0.016 µM (active) on Activin receptor type-1B; > 30 µM (inactive) in [3]; > 30 µM (inactive) in assay [4]. Further, the Kd in assay [5], in assay [6], in [7], in assay [8], in assay [9] and in assay [10] was > 30 µM (inactive) each time. The Kd at Deoxycytidine kinase was > 30 µM (inactive).

For the compound `COc1ccc(S(=O)(=O)N(C(C)=O)c2ccccc2/C=C/c2cc[n+]([O-])cc2)cc1` [HMN-214], the Kd (in assay [1]; at Ephrin type-B receptor 3; in [2]; on Activin receptor type-1B; in assay [3]; in assay [4]) was > 30 µM (inactive) in each case. The Kd in assay [5], in assay [6], in assay [7], in assay [8], in [9] and in [10] was > 30 µM (inactive) each time. In addition, the Kd at Deoxycytidine kinase was > 30 µM (inactive).
